Here are results for six compounds from patent publication US8552161B2, “Saponin compounds, methods of preparation thereof, use thereof and pharmaceutical compositions” (Uniwersytet W Bialymstoku, priority 2009, dated 2013).

Assay [1] concerns T-lymphoblastic leukemia cell line CEM. The experiment in a line: Calcein AM cytotoxicity assay, CEM. Type of assay: cell-based. As to conditions: Calcein AM assay, 72 h; means ± SD, three independent experiments in triplicate. As for the experimental part: (§1) Stock solutions (10 mmol/l) of the tested compounds were prepared by dissolving relevant quantity of the substance in DMSO. […] Calcein AM was obtained from Molecular Probes (Invitrogen Corporation, CA, USA).
(§2) All cell lines were cultured in DMEM medium (Sigma, Mo., USA). Medium was supplemented with 10% heat-inactivated fetal bovine serum, 2 mmol/l L-glutamine and 1% penicillin-streptomycin. The cell lines were maintained under standard cell culture conditions at 37° C. and 5% CO2 in a humid environment. Cells were subcultured twice or three times a week using the standard trypsinization procedure.
(§3) All cell lines were cultured in DMEM medium (Sigma, Mo., USA) supplemented with 10% fetal calf serum, 2 mM glutamine, 100 U/ml penicillin and 100 μg/ml streptomycin, at 37° C. in a fully humidified atmosphere containing 5% CO2. Suspensions of these lines (ca. 1.0×10^5 cells/ml) were placed in 96-well microtitre plates and after 3 h of stabilization the tested compounds were added in serially diluted concentrations. Saponins were dissolved in dimethylsulfoxide (DMSO) before addition to cultures. Control cultures were treated with DMSO alone. The final concentration of DMSO in the reaction mixtures never exceeded 0.6%. Four-fold dilutions of the intended test concentration were added at time zero in 20 μl aliquots to the microtitre plate wells. Usually, each test compound was evaluated at six 4-fold dilutions and in routine testing; the highest well concentration was 50 μM, although this varied in a few cases, depending on the test compound. After 72 h of culture, the cells were incubated with Calcein AM solution (Molecular Probes) for 1 h. The fluorescence of viable cells was quantified using a Fluoroscan Ascent instrument (Microsystems).

For assay [2], the system named is breast carcinoma cell line MCF7. Briefly: Calcein AM cytotoxicity assay, MCF7. It is filed as cell-based, human. The following applies: Calcein AM assay, 72 h; means ± SD, three independent experiments in triplicate. The procedure:
as §1, §2, §3

Assay [3] concerns malignant melanoma cell line G-361. The experiment in a line: Calcein AM cytotoxicity assay, G-361. It is filed as cell-based, human. The following applies: 72 h, means ± SD, three independent experiments in triplicate. The procedure:
as §1, §2, §3

For assay [4], the system named is cervical carcinoma cell line HeLa. The experiment in a line: Calcein AM cytotoxicity assay, HeLa. It is filed as cell-based. The following applies: 72 h, means ± SD, three independent experiments in triplicate. As for the experimental part:
as §1, §2, §3

Assay [5] concerns lung carcinoma cell line A549. Briefly: Calcein AM cytotoxicity assay, A549. As to conditions: 72 h, means ± SD, three independent experiments in triplicate, read-out: IC50, A 549. It is filed as cell-based, human. The procedure: as §1, §2, §3
The test system of assay [6] is normal human fibroblasts BJ. Briefly: Calcein AM cytotoxicity assay, normal fibroblasts BJ. The following applies: 72 h, means ± SD, three independent experiments in triplicate. Type of assay: cell-based. The procedure:
as §1, §2, §3

The next assay has as its system caspase-3/7 in CEM cells. Briefly: Activity of caspases-3/7 in treated CEM cells (Ac-DEVD-AMC substrate). Type of assay: cell-based. The following applies: for activity of caspases-3/7 compared with untreated control: 24 h, 3 (1; 2.5; 5 μM), 6 (0.1; 0.25; 0.5 μM). The procedure:
The CEM cells treated with the novel compounds were harvested by centrifugations and homogenized in an extraction buffer (10 mM KCl, 5 mM HEPES, 1 mM EDTA, 1 mM EGTA, 0.2% CHAPS, inhibitors of proteases, pH 7.4) on ice for 20 min. The homogenates were clarified by centrifugation at 10,000 g for […] at 4° C., the proteins were quantified by the Bradford method and diluted to the same concentration. Lysates were then incubated for 1 h with […] Ac-DEVD-AMC as a substrate (Sigma-Aldrich) in an assay buffer (25 mM PIPES, 2 mM EGTA, 2 mM MgCl2, 5 mM DTT, pH 7.3). For negative controls, the lysates were supplemented with […] Ac-DEVD-CHO as a caspase-3/7 inhibitor (Sigma-Aldrich). The fluorescence of the product was measured using a Fluoroskan Ascent microplate reader (Labsystems) at 346/442 nm (ex/em). Here, we determined the activity of caspase-3/7 in CEM cells exposed to 3, 6 or 7 using a fluorogenic substrate Ac-DEVD-AMC and/or caspase 3/7 inhibitor […]. Cells were treated in a dose-dependent manner with compounds 3 (1; 2.5; 5 μM), 6 (0.1; 0.25; 0.5 μM) and 7 (5; 7.5; 10 μM).

A further assay concerns CEM cells. Briefly: Flow cytometry cell cycle and apoptosis (subG1) analysis. It is filed as cell-based. The following applies: for distribution of CEM cells in cell cycle phases (FIG. 2): increasing concentrations. The procedure:
The leukemia cancer CEM cells were trypsinized, seeded in 6 well plates, and immediately incubated with the respective compounds. […] Triton X-100, and 50 μg/ml propidium iodide in PBS. DNA content was assessed with a flow cytometer (Cell Lab Quanta SC—MPL, Beckman Coulter, Calif., USA). In a histogram analysis, distribution of cells into the subG1 (“apoptotic cells”), the G0/G1, S and the G2/M peak was quantified using software MultiCycle AV (Phoenix Flow Systems, CA, USA).

The next assay deals with leukemia cells (CEM). Briefly: Western blot analysis of apoptosis related proteins. It is filed as cell-based. The following applies: 24 h. The procedure: The cells were seeded in a density 2.2×10^4 cells/cm^2 using culture medium in 100-mm culture dishes. Immediately the cells were treated by novel saponins: 3 (1; 2.5; 5 μM), 6 (0.1; 0.25; 0.5 μM) and 7 (5; 7.5; 10 μM). DMSO was used as a vehicle for controls. After 24 h treatment, the cells were washed three times with cold PBS (10 mM, pH 7.4) and lysed in ice-cold protein extract RIPA buffer (20 mM Tris-HCl, pH 7.4, 5 mM EDTA, 2 mM EGTA, 100 mM NaCl, 2 mM NaF, 0.2% Nonidet P-40, 30 mM PMSF, 1 mM DTT, […] of aprotinin and leupeptin). The lysate was collected into microfuge tube and incubated on ice for 1 h. It was then cleared by centrifugation at 10,000×g for […] at 4° C., and supernatant was collected, aliquoted, and stored at −80° C. Proteins in lysates were quantified by the Bradford method and then diluted with Laemmli electrophoresis buffer. Proteins were then separated on 10% or 12% SDS-polyacrylamide gels, transferred onto nitrocellulose membranes (Bio-Rad Laboratories, CA, USA) and stained with Ponceau S to check equal protein loading. The membranes were blocked with 5% (w/v) non-fat dry milk and 0.1% Tween-20 in PBS for 2 h and probed with the specific primary antibodies overnight. After washing in PBS and PBS with 0.1% Tween-20, the membranes were probed with horseradish peroxidase-conjugated secondary antibodies and visualized with chemiluminescent detection reagent West Pico Supersignal (Thermo Fisher Scientific, Rockford, USA). To confirm equal protein loading, immunodetection was performed with the anti-α-tubulin monoclonal antibody. The experiments were repeated three times. The protein expressions in treated cells were compared to untreated controls.

Take `CCCCCCC(=O)OC[C@@H](C)[C@@]1(O)[C@@H](O[C@@H]2OC[C@H](O)[C@H](O[C@@H]3OC[C@@H](O)[C@H](O)[C@H]3OC(=O)c3ccc(OC)cc3)[C@H]2OC(C)=O)C[C@H]2[C@@H]3CC=C4C[C@@H](O)CC[C@]4(C)[C@H]3CC[C@@]21C` [Compound 5, (20R)-21-O-Heptanoyl-20-methylpregn-5-ene-3β,16β,17α,21-tetraol 16-O-{2-O-(4-methoxybenzoyl)-β-D-xylopyranosyl-(1-3)-2′-O-acetyl-α-L-arabinopyranoside}]: the IC50 in [1] is 10 ± 2 nM; in assay [2], 400 ± 40 nM; in [3], 1280 ± 200 nM; in [4], 30 ± 2 nM; in [5], 20 ± 5 nM; in assay [6], 600 ± 70 nM.
With `C=CCCCCCCCCC(=O)OC[C@@H](C)[C@@]1(O)[C@@H](O[C@@H]2OC[C@H](O)[C@H](O[C@@H]3OC[C@@H](O)[C@H](O)[C@H]3OC(=O)c3ccc(OC)cc3)[C@H]2OC(C)=O)C[C@H]2[C@@H]3CC=C4C[C@@H](O)CC[C@]4(C)[C@H]3CC[C@@]21C` [Compound 6, (20R)-21-O-(Undec-10-enoyl)-20-methylpregn-5-ene-3β,16β,17α,21-tetraol 16-O-{2-O-(4-methoxybenzoyl)-β-D-xylopyranosyl-(1→3)-O-acetyl-α-L-arabinopyranoside}], in the assay with caspase-3/7 in CEM cells, the “activity of caspases-3/7 compared with untreated control” value is given as “twofold enhancement” and the “caspase-3/7 activity after treatment with higher concentrations” value was “caspase-3/7 activity decreased”. Moreover, in the assay on CEM cells, the “distribution of CEM cells in cell cycle phases (FIG. 2)” value is “increased the number of S-phase and G2/M cells with concomitant decrease of G0/G1 cells in dose-dependent manner”. In addition, in the assay with leukemia cells (CEM) (dose-dependent (FIG. 5)), the “PARP (Western blot)” value is listed as “cleavage of PARP”, the “antiapoptotic Bcl-2 protein” value was “increased”, the “caspase-3 (Western blot)” value is on record as “accumulation of caspase-3” and the “expression of tumour suppressor protein p53” value was “enhanced expression”. Moreover, the “phosphorylation of pRb S780” value in the assay on leukemia cells (CEM) (same concentrations (FIG. 5)) is “increase of phosphorylation of pRb S780”.
Consider `COc1ccc(C(=O)OCC(C)C2(O)C(OC3OCC(O)C(OC4OCC(O)C(O)C4OC(=O)c4ccc(OC)cc4)C3OC(C)=O)CC3C4CC=C5CC(O)CCC5(C)C4CCC32C)cc1` [Compound 3, (20R)-21-O-(4-methoxybenzoyl)-20-methylopregn-5-ene-3β,16β,17α,21-tetraol 16-O-{2-O-(4-methoxybenzoyl)-β-D-xylopyranosyl-(1→3)-2′-O-acetyl-α-L-arabinopyranoside], for which, in the assay on caspase-3/7 in CEM cells, the “activity of caspases-3/7 compared with untreated control” value was “twofold enhancement” and the “caspase-3/7 activity after treatment with higher concentrations” value is reported as “caspase-3/7 activity decreased”. For the same compound, the “subG1 phase of the cell cycle (apoptotic cells)” value in the assay with CEM cells (CEM cell line after treatment) is recorded as “increase in subG1 phase”. Moreover, the “distribution of CEM cells in cell cycle phases (FIG. 2)” value in the assay with CEM cells is “increased the number of S-phase and G2/M cells with concomitant decrease of G0/G1 cells in dose-dependent manner”. In the assay on CEM cells (CEM, 24 h, 0.5 μM), the “Apoptosis subG1” value was 11%, the “Cell cycle distribution G0/G1” value amounted to 17%, the “Cell cycle distribution G2/M” value amounted to 26% and the “Cell cycle distribution S” value is on record as 46%. In addition, in the assay with leukemia cells (CEM) (dose-dependent (FIG. 5)), the “PARP (Western blot)” value is listed as “cleavage of PARP” and the “caspase-3 (Western blot)” value is on record as “accumulation of caspase-3”.
Turning to `COc1ccc(C(=O)O[C@H]2[C@H](O[C@@H]3[C@@H](OC(C)=O)[C@H](O[C@H]4C[C@H]5[C@@H]6CC=C7C[C@@H](O)CC[C@]7(C)[C@H]6CC[C@]5(C)[C@@]4(O)[C@H](C)COCc4ccccc4)OC[C@@H]3O)OC[C@@H](O)[C@@H]2O)cc1` [Compound 1, (20R)-21-Benzyloxy-20-methylpregn-5-ene-3β,16β,17α-triol 16-O-{2-O-(4-methoxybenzoyl)-β-D-xylopyranosyl-(1→3)-2′-O-acetyl-α-L-arabinopyranoside}], the half-inhibitory concentration (IC50) in assay [1] is 20 ± 1 nM; in assay [2], 600 ± 100 nM; in assay [3], 750 ± 80 nM; in assay [4], 200 ± 10 nM; in assay [5], 100 ± 50 nM; in assay [6] it was 300 ± 40 nM.
As for `COc1ccc(C(=O)O[C@H]2[C@H](O[C@@H]3[C@@H](OC(C)=O)[C@H](O[C@H]4C[C@H]5[C@@H]6CC=C7C[C@@H](O)CC[C@]7(C)[C@H]6CC[C@]5(C)[C@@]4(O)[C@H](C)COC(=O)c4ccccc4)OC[C@@H]3O)OC[C@@H](O)[C@@H]2O)cc1` [Compound 2, (20R)-21-O-benzoyl-20-methylpregn-5-ene-3β,16β,17α,21-tetraol 16-O-{2-O-(4-methoxybenzoyl)-β-D-xylopyranosyl-(1→3)-2′-O-acetyl-α-L-arabinopyranoside}], the IC50 in assay [1] is 70 ± 10 nM; in [2], 700 ± 100 nM; in assay [3], 1660 ± 900 nM; in assay [4] it was 240 ± 60 nM; in [5] it was 170 ± 40 nM; in [6] it was 100 ± 20 nM.
In the case of `CCCCC(=O)OC[C@@H](C)[C@@]1(O)[C@@H](O[C@@H]2OC[C@H](O)[C@H](O[C@@H]3OC[C@@H](O)[C@H](O)[C@H]3OC(=O)c3ccc(OC)cc3)[C@H]2OC(C)=O)C[C@H]2[C@@H]3CC=C4C[C@@H](O)CC[C@]4(C)[C@H]3CC[C@@]21C` [Compound 4, (20R)-21-O-pentanoyl-20-methylpregn-5-ene-3β,16β,17α,21-tetraol 16-O-{2-O-(4-methoxybenzoyl)-β-D-xylopyranosyl-(1→3)-2′-O-acetyl-α-L-arabinopyranoside}], the IC50 was 60 ± 10 nM in assay [1]; 500 ± 70 nM in assay [2]; 390 ± 60 nM in assay [3]; 170 ± 10 nM in [4]; 160 ± 40 nM in [5]; 500 ± 60 nM in [6].
